In the experiment the test system is 4T1 tumor xenograft. Kind of experiment: 4T1 tumor xenograft model with ES-072 and/or anti-CTLA4. It is filed as in vivo, BALB/c mice. How it is done:
Fig. 6 ARIH1 promotes anti-tumor immunity via PD-L1 degradation. a Immunoblot of PD-L1 and ARIH1 (HA) in H1975 cells transfected with HA-ARIH1 (WT or Y392C); HA-tagged empty vector (HA-EV) was transfected as a negative control. b Co-IP analysis for the interaction of K48-ubiquitin, ARIH1 (HA), and PD-L1 in HEK293T cells transfected with Flag-PD-L1 and HA-ARIH1 (WT or Y392C) in the presence of 10 μM MG132 for 6 h. c 4T1 cells were infected with an empty vector (CTRL) or two different ARIH1-overexpressing lentiviral preparations (OE#1 and OE#2). ARIH1 and PD-L1 levels were determined by immunoblotting. d–f Tumor growth (d, e) of CTRL (n = 10) and ARIH1-OE cells (n = 11) in BALB/c mice and final tumor weights (f). […]
For xenograft model with 4T1 cells and combination therapy with ES-072 and anti-CTLA4, 5 × 10^5 4T1 cells suspended in 50 μL PBS and Matrigel (1 : 1 v/v) were injected into the fourth breast fat pad. On days 3 after injection, tumor size was measured and calculated by using the formula 1/2 × length × width^2. […]
Excised tumors were digested in collagenase/hyaluronidase and DNase at 37 °C for 45 min to make cell suspension with a 45 μm filter (BD Bioscience). […] Data acquisition was performed using flow cytometry (Beckman Coulter Cytoflex) and data were analyzed using CytExpert V2.3 software. […]

Turning to `C=CC(=O)Nc1cccc(Nc2nc(Nc3ccc(N4CCN(C)CC4)nc3OC)ncc2C(F)(F)F)c1` [ES-072], the tumor growth result (4T1 cells in BALB/c mice, ES-072 60 mg/kg i.g. daily, anti-CTLA4 100 μg i.p. day 7, 10, 13) is “significantly decreased”. In addition, the “PD-L1 levels in tumor lysates” value (4T1 tumors, western blotting) was “decreased”.

(Values after publication PMC8058344, “ARIH1 signaling promotes anti-tumor immunity by targeting PD-L1 for proteasomal degradation” (Nature Communications, 2021).)
